In patent US20120101093A1, “SUBSTITUTED IMIDAZO[1,2-A]PYRIDINE DERIVATIVES, PHARMACEUTICAL COMPOSITIONS, AND METHODS OF USE AS BETA-SECRETASE INHIBITORS” (HIGH POINT PHARMACEUTICALS, LLC, priority 2009, published 2012) one finds IC50 data, which are given here for nine compounds.

The assay concerns the target T1, BACE-1 enzyme (Homo sapiens, UniProt P56817).
T1 construct: purchased R & D Systems 931AS
Put plainly: BACE Fluorescence Resonance Energy Transfer (FRET) Assay. It is filed as biochemical. The conditions noted are these: pH 4-4.5, 30 min pre-incubation, about 1.5 hours reaction. In short, it runs like this: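 Fluorescence (ex 540, em 585 nm) after ~1.5 h room-temperature cleavage of a quenched rhodamine peptide tracks BACE-1 activity. Enzyme and compound first sit 30 min in pH 4-4.5 acetate buffer with CHAPS, Triton X-100, EDTA, 7.5% DMSO. Values given as IC50 or % inhibition.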

T1 sequence (P56817 46-457 limits assumed): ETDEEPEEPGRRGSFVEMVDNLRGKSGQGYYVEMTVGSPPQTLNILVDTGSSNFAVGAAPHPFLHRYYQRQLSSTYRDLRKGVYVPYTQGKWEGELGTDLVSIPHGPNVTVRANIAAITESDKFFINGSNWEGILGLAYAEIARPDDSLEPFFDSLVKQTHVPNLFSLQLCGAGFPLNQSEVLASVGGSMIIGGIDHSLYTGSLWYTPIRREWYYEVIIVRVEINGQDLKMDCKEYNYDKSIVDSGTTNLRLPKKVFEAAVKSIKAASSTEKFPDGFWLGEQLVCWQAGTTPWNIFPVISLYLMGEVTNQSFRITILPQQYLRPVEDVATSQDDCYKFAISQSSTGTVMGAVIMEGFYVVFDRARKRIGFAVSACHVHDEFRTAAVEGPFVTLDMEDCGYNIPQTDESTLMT

Take `Cc1c(N2CC[C@H](O)C2)ccc2nc(C(=O)Nc3nc4cc(-c5cc(F)cc(Cl)c5)ccc4[nH]3)cn12` [Example 235, 6-((S)-3-Hydroxy-pyrrolidin-1-yl)-5-methyl-imidazo[1,2-a]pyridine-2-carboxylic acid [5-(3-chloro-5-fluoro-phenyl)-1H-benzoimidazol-2-yl]-amide]: the IC50 – broadly, the concentration needed to halve the response being measured – is 0.69 µM.
In turn, `CO[C@@H]1CCN(c2ccc3nc(C(=O)Nc4nc5cc(-c6cc(F)cc(Cl)c6)ccc5[nH]4)cn3c2C)C1` [Example 236, 6-((R)-3-Methoxy-pyrrolidin-1-yl)-5-methyl-imidazo[1,2-a]pyridine-2-carboxylic acid [5-(3-chloro-5-fluoro-phenyl)-1H-benzoimidazol-2-yl]-amide] registered an IC50 of 0.25 µM.
As for `CO[C@H]1CCN(c2ccc3nc(C(=O)Nc4nc5cc(-c6cc(F)cc(Cl)c6)ccc5[nH]4)cn3c2C)C1` [Example 237, 6-((S)-3-Methoxy-pyrrolidin-1-yl)-5-methyl-imidazo[1,2-a]pyridine-2-carboxylic acid [5-(3-chloro-5-fluoro-phenyl)-1H-benzoimidazol-2-yl]-amide], the figure is 0.23 µM.
With `Cc1c(C#CCO)ccc2nc(C(=O)Nc3nc4cc(-c5cccc(C(F)(F)F)c5)ccc4[nH]3)cn12` [Example 238, 6-(3-Hydroxy-prop-1-ynyl)-5-methyl-imidazo[1,2-a]pyridine-2-carboxylic acid [5-(3-trifluoromethyl-phenyl)-1H-benzoimidazol-2-yl]-amide] the figure was 0.22 µM; with `COCCn1c(NC(=O)c2cn3c(C)cccc3n2)nc2ccc(-c3cccc(C(F)(F)F)c3)cc21` [Example 239, 5-Methyl-imidazo[1,2-a]pyridine-2-carboxylic acid [1-(2-methoxy-ethyl)-6-(3-trifluoromethyl-phenyl)-1H-benzoimidazol-2-yl]-amide], 0.7 µM.
With `Cc1cccn2cc(C(=O)Nc3nc4cc(-c5cccc(C(F)(F)F)c5)ccc4n3C)nc12` [Example 241, 8-Methyl-imidazo[1,2-a]pyridine-2-carboxylic acid [1-methyl-5-(3-trifluoromethyl-phenyl)-1H-benzoimidazol-2-yl]-amide] the figure was 1.5 µM.
In turn, `COCCn1c(NC(=O)c2cn3c(C)cccc3n2)nc2cc(-c3ccc(Cl)c(C(F)(F)F)c3)ccc21` [Example 242, 5-Methyl-imidazo[1,2-a]pyridine-2-carboxylic acid [5-(4-chloro-3-trifluoromethyl-phenyl)-1-(2-methoxy-ethyl)-1H-benzoimidazol-2-yl]-amide] returned an IC50 of 0.44 µM.
`Cc1cccc2nc(C(=O)Nc3nc4cc(-c5ccc(Cl)c(C(F)(F)F)c5)ccc4n3CCN3CCOCC3)cn12` [Example 243, 5-Methyl-imidazo[1,2-a]pyridine-2-carboxylic acid [5-(4-chloro-3-trifluoromethyl-phenyl)-1-(2-morpholin-4-yl-ethyl)-1H-benzoimidazol-2-yl]-amide] returned an IC50 of 6.9 µM.
With `O=C(O)c1ccn2cc(C(=O)Nc3nc4cc(-c5cc(F)cc(Cl)c5)ccc4[nH]3)nc2c1` [Example 244, 2-[5-(3-Chloro-5-fluoro-phenyl)-1H-benzoimidazol-2-ylcarbamoyl]-imidazo[1,2-a]pyridine-7-carboxylic acid] the figure was 3.64 µM.
